Assay [1] has as its system 293 human kidney cell line. Nature of the assay: Gene delivery efficiency (luciferase gene) with varied amounts of DNA, 293 cells. The following applies: DNA:liposome 1:12 (w/w), luciferase gene 0.5, 1, 2 and 5 μg tested, FIGS. 1a-1c. Format: cell-based. On the procedure:
(§1) For the evaluation of gene delivery efficiency of liposomes with varied amount of DNA, DNA-liposome complex was prepared by mixing DNA and liposome(1:12, w/w) in 500 μl of serum-free medium, while varying the amounts of luciferase gene as 0.5 μg, 1 μg, 2 μg and 5 μg. […] After incubation, media were discarded, cells were lysed by adding 100 μl of Luciferase cell culture lysis reagent(Promega, USA), and centrifuged at 14000 rpm for 10 sec. And then, 10 μl of supernatant was mixed with 20 μl of a substrate of luciferase, and luminescence was measured by using Luminometer(Mini lumat LB9506, EG&G BERTHOLD). Proteins in each well were quantitated by DC protein assay(Bio-rad, USA)(see: FIGS. 1a-1c and 2a-2c).

Assay [2] concerns mouse melanoma cell B16BL6. Nature of the assay: Gene delivery efficiency (luciferase gene) with varied amounts of DNA, B16BL6 cells. The format is cell-based. To be noted: DNA:liposome 1:12 (w/w), luciferase gene 0.5, 1, 2 and 5 μg tested, FIGS. 2a-2c. On the procedure: Mouse melanoma cells […] were inoculated in MEM(minimum essential medium, Gibco-BRL, USA) containing 5% (v/v) fetal bovine serum, streptomycin and penicillin, and incubated in an incubator(NAPCO, USA) under an environment of 5% (v/v) CO2 at 37° C., which were aliquoted in 24-well plate to reach the cell density of 1×10^5 cell/well or 5×10^4 cell/well, and further incubated for 24 hrs to stabilize the cells.
as §1

For the substance lysine-aspartate-hexadecanol [KD-DP], the “amount of DNA showing the highest gene delivery efficiency” value (“amount” below) in assay [1] came to 2 µg; in assay [2], 0.5 µg.
Turning to lysine-aspartate-tetradecanol [KD-DM], the “amount” value in assay [1] and in assay [2] was 1 µg each time.
Regarding lysine-glutamate-tetradecanol [KE-DM], in assay [1], the “amount” value was 2 µg.

The record behind these values is patent US20050112185A1, “Positively charged lipid and liposome with the lipid” (priority 2002, published 2005).
